Assay results: patent US20240350597A1, “PROTEASE INHIBITORS” (University College Dublin, priority 2023, published 2024)

Experiments:
pancreatic elastase = assay: Protease inhibition assay, elastase; assay type: biochemical; settings: 10 min preincubation, A1AT compared with B3-TMP
Procedure: (§1) Proteases were incubated with a 1:5 molar excess of serpin and residual activity was determined by cleavage of fluorescent substrates. All assays were carried out at room temperature in 96-well plates in a total volume of 100 μL. Residual proteolytic activity was measured using a SpectraMax M3 Microplate Reader (Molecular Devices, Inc), using the appropriate buffer and synthetic fluorogenic peptide substrate: Cathepsin L, Z-FR-AMC (10 μM), 50 mM Na-Acetate, 100 mM NaCl, 1 mM EDTA, pH 5.5; Chymotrypsin, Z-AAPF-AMC (5 μM), PBS, 1 mg/ml BSA; Elastase, Met-O-Suc-AAPV-AMC (10 μM), 50 mM Tris, 120 mM NaCl, pH 8.0, 1 mg/ml BSA; Furin, Boc-RVRR-AMC (50 μM) 20 mM Tris, 1 mM CaCl2), 0.5% Brij-35, pH 9; TMPRSS2, Boc-QAR-AMC (80 μM), PBS; Trypsin, Z-FR-AMC (10 μM), 50 mM Tris, 0.2 mM DTT, 1 mg/ml BSA. The excitation and emission wavelengths used were 380 nm and 460 nm respectively. All assays were performed in triplicate.
(§2) As an indication of target protease selectivity, both serpins were tested with mammalian trypsin, chymotrypsin and elastase, in addition to TMPRSS2. A short preincubation time of 10 minutes prior to addition of fluorogenic substrate was used and residual activity determined.

mammalian trypsin = assay: Protease inhibition assay, trypsin; assay type: biochemical; settings: 10 min preincubation, A1AT compared with B3-TMP
Procedure: as §1, §2

TMPRSS2 [1] = target: T1, TMPRSS2 (Homo sapiens, UniProt O15393); assay: Kinetic analysis of TMPRSS2 inhibition under pseudo first-order conditions; assay type: biochemical; settings: room temperature, TMPRSS2 0.1 μM
T1 construct: purchased Cusabio Technology
T1 sequence (O15393 whole entry): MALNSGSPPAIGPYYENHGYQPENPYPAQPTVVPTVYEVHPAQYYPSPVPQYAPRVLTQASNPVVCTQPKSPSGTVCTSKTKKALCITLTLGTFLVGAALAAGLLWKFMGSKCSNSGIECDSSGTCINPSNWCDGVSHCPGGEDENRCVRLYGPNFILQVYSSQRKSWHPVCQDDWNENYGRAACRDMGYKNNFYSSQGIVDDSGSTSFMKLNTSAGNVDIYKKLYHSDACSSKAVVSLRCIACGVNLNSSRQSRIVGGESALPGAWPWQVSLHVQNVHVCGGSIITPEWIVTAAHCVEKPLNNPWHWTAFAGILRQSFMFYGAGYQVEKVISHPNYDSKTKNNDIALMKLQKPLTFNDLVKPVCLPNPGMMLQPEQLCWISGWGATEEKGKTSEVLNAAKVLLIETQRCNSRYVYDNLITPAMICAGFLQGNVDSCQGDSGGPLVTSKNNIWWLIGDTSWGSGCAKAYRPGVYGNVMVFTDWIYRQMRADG
Procedure: For kinetic analysis of TMPRSS2 inhibition, second order inhibition rate constants were determined under pseudo first-order conditions using a range of serpin concentrations, and with TMPRSS2 buffer and substrate detailed above. Reactions were performed at room temperature and residual activity was determined at intervals over a 10 min incubation with a molar excess of serpin over protease. Concentration ranges were 0.12 to 0.44 μM for B3-TMP and 1.0 to 4 μM for A1AT. The apparent first order rate constant kobs for each concentration was calculated from the slope of the natural log of residual activity over time (−kobs). These values were plotted against inhibitor concentration and linear regression analysis of this plot gave the second order inhibition rate constant k2, with standard error determined.

[2] = tested on: SARS-CoV-2 Spike pseudoparticles; assay type: cell-based; settings: 12.5 μM, A549-ACE2-TMPRSS2 cells
chymotrypsin = assay: Protease inhibition assay, chymotrypsin; assay type: biochemical; settings: 10 min preincubation, A1AT compared with B3-TMP
Procedure: as §1, §2

TMPRSS2 [3] = target: T1, TMPRSS2; assay type: biochemical; settings: 5:1 serpin:protease ratio, 10 min incubation, substrate Boc-QAR-AMC

alpha-1-antitrypsin [A1AT]
pancreatic elastase inhibition (in words) (pancreatic elastase): more effective inhibitor
trypsin inhibition (in words) (mammalian trypsin): more effective inhibitor
second order inhibition rate constant k2 of TMPRSS2 inhibition (TMPRSS2 [1]): (4.8±0.55)×10^2 M^−1 s^−1
inhibition of pseudoparticle entry [2]: 40%
chymotrypsin inhibition (in words) (chymotrypsin): more effective inhibitor
inhibition of TMPRSS2 (TMPRSS2 [3]): 15%
